Test results as given in US20130040952A1 (priority 2011, published 2013).

Columns and labels:
Format in all cases: cell-based, recombinant influenza virus in WSN background
[1] = system: compound 3061-resistant rWSN virus (Y52H mutation at NP)
[2] = system: nucleozin-resistant rWSN virus (Y289H mutation at NP)
[3] = system: Y52H/Y289H double mutation rWSN virus; conditions: read-out: Anti-rWSN IC50 (μM), NP Y52H/Y289H

With `O=C(NCCCN1CCOCC1)c1csc(Nc2ccc(Cl)c(Cl)c2)n1` [compound 1] the “inhibition of 3061-resistant strain” value [1] was “capable of inhibiting”, the IC50 ([1]; read-out: Anti-rWSN IC50 (μM), NP Y52H) was 3.2 µM and the “inhibition of nucleozin-resistant strain” value [2] was “capable of inhibiting”. It also gave an IC50 ([2]; read-out: Anti-rWSN IC50 (μM), NP Y289H) of 4 µM and an IC50 [3] of 1.8 µM.
